Source: patent US8697727B2, “N-substituted-heterocycloalkyloxybenzamide compounds and methods of use” (Rigel Pharmaceuticals, Inc., priority 2006, dated 2014)

What was measured:
Type in all cases: cell-based
AMPK [1] = assay: AMPK activation, enzyme-linked immunosorbent assay
How it was run: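 Cell-based assay in which AMPK activity was measured as the relative concentration of phosphorylated acetyl-CoA carboxylase, a product of AMPK, by enzyme-linked immunosorbent assay. The endpoint is the EC50 for AMPK activation of each compound. EC50 values were reported in ranges: less than 1 μM, 1-10 μM, 10-20 μM, 20-50 μM, 50-100 μM, and >100 μM.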

AMPK [2] = assay: Western blot assay for AMPK activity; conditions: gel electrophoresis data relative to GST-gAd (FIG. 3)
Method: Western blot assays for AMPK activity were performed on compounds 1, 2, 94 and 95. FIG. 3 presents gel electrophoresis data for compounds 1, 2, 94 and 95 relative to GST-gAd.

[3] = system: Human liver cells (HepG2); assay: Reduction of glycogen content in liver cells (Amplex Red); conditions: HepG2 cells treated for 16 hours, Amplex Red (FIG. 4)
Method: The ability of compounds of the present invention to reduce the glycogen content in liver cells was determined using a functional assay. Human liver cells (HepG2) were seeded in a 96 well plate and on the next day were treated with compounds 1, 2, 94 and 95 for 16 hours. The glycogen content of the cells was determined using Amplex Red.

Compound: COc1ccc(CN2CCC(Oc3ccc(C(=O)NC4CCN(Cc5ccccc5)CC4)cc3Cl)CC2)cc1 [Compound 1, N-(1-benzylpiperidin-4-yl)-3-chloro-4-(1-(4-methoxybenzyl)piperidin-4-yloxy)benzamide]
- EC50 (AMPK [1]): < 1000 nM
- AMPK activity in the western blot assay (AMPK [2]): strong activity
- IC50 value, glycogen content [3]: sub-micromolar

Compound: COc1cc(C(=O)NC2CCN(Cc3ccccc3)CC2)ccc1OC1CCN(Cc2ccccc2)CC1 [Compound 2, N-(1-benzylpiperidin-4-yl)-4-(1-benzylpiperidin-4-yloxy)-3-methoxybenzamide]
- EC50 (AMPK [1]): < 1000 nM
- AMPK activity in the western blot assay (AMPK [2]): strong activity
- IC50 value, glycogen content [3]: sub-micromolar

Compound: COc1cc(C(=O)NCCCNC(=O)OC(C)(C)C)ccc1OC1CCN(Cc2ccc(C(F)(F)F)cc2)CC1 [Compound 94, tert-butyl 3-(3-methoxy-4-(1-(4-(trifluoromethyl)benzyl)piperidin-4-yloxy)benzamido)propylcarbamate]
- EC50 (AMPK [1]): < 1000 nM
- AMPK activity in the western blot assay (AMPK [2]): strong activity
- IC50 value, glycogen content [3]: sub-micromolar

Compound: CC(C)(C)OC(=O)NCCCNC(=O)c1ccc(OC2CCN(Cc3ccc(C(F)(F)F)cc3)CC2)cc1 [Compound 95, tert-butyl 3-(4-(1-(4-(trifluoromethyl)benzyl)piperidin-4-yloxy)benzamido)propylcarbamate]
- EC50 (AMPK [1]): < 1000 nM
- AMPK activity in the western blot assay (AMPK [2]): strong activity
- IC50 value, glycogen content [3]: sub-micromolar

Compound: O=C(c1ccc(OC2CCN(Cc3ccccc3)CC2)cc1)N1CCN(Cc2ccccn2)CC1 [Compound 105, (4-(1-benzylpiperidin-4-yloxy)phenyl)(4-(pyridin-2-ylmethyl)piperazin-1-yl)methanone]
- EC50 (AMPK [1]): 10000 to 20000 nM
